Assays:
[1] = format: in vitro ADME, CD-1 mouse or human; settings: microsomes
Protocol: Mouse and Human Liver Microsomes are respectively provided by RILD and coming. They are collected from CD-1 mouse or human and prepared in 100 mM potassium phosphate buffer. […] Aliquots are sampled at 0, 5, 15, 30, 45, and 60 min for LC-MS/MS analysis.

[2] = test system: Caco-2 cells; format: in vitro ADME
Protocol: Caco-2 cells are seeded onto 0.4 μm pore polycarbonate membranes (PC) in 96-well Corning Insert plates at a density of 3.5×10^4 cells/cm2.HBSS with 10.0 mM HEPES at pH 7.40±0.05 as the transport buffer. The compound is subjected to bidirectional testing in triplicate at 2.00 μM. The plate is incubated in a CO2 incubator with 5% CO2 at 37.0° C. and saturated humidity for two hours without shaking. All samples are centrifuged at 3220 g for 10 minutes after being combined with acetonitrile containing internal standard. Using the peak area ratio of the analyte/internal standard, LC-MS/MS techniques are used to quantify the concentrations of the compound in the beginning solution, donor solution, and recipient solution. Following transportation, lucifer yellow rejection assay is applied to determine the Caco-2 cell monolayer integrity.
For data analysis, Permeability (Papp), efflux ratio and Percent recovery are calculated using the following equations: […]

[3] = test system: Wild Type SARS-CoV-2; experiment: Golden Syrian hamster experiment; format: in vivo
[4] = Balb/c mouse, single intraperitoneal 5 mg/kg
[5] = test system: 44 selected host targets including 24 GPCRs, 8 ion channels, 7 enzymes, 3 monoamine transporters, and 2 nuclear hormone receptors; settings: 10 μM
[6] = test system: SARS-CoV; format: cell-based
[7] = test system: HCoV-229E; format: cell-based
[8] = test system: recombinant WT SARS-CoV-2; experiment: microbe, parasite or virus in culture; format: cell-based; settings: for IC50: Severe acute respiratory syndrome coronavirus 2, recombinant WT virus, read-out: IC50 (plaque formation assay)
[9] = test system: MERS-CoV; format: cell-based
[10] = test system: VeroE6 cells; experiment: in vitro; format: cell-based; settings: African green monkey, 72 h, 100 μM
Protocol: (§1) FIG. 9. MTT cytotoxicity assays of SMART™ finalized hits compounds on VeroE6 cells. VeroE6 cells are treated with compounds of interest diluted from 100 μM to 0.78 μM in a 2-fold interval and incubate for 72 hours.
(§2) Briefly, cells are seeded onto a 96-well plate at a density of 20,000 cells per well one day before treatment. On the following day, compounds of interest are added to the cells in gradient concentrations and incubated at 37° C. with 5% CO2 for either 48 or 96 hours. After medium removal, 100 μL of 1×MTT solution in plain DMEM is added to the cells and incubated at 37° C. with 5% CO2 for 3-4 hours. Then, MTT lysis buffer (10% SDS/10 mM HCl) is added to the cells and incubated at room temperature for 3-4 hours. Cell viability is measured in absorbance (OD595) using a plate reader (Glomax, Promega).

[11] = in vitro; format: cell-based; settings: African green monkey
Protocol: as §1, §2

| Structure (SMILES) | metabolic stability [1] | permeability [2] | viral yield reduction in lung and nasal turbinate vs control group ([3]; 1 mg/kg IP at 12-hour intervals, day 3) [log 10] | Cmax [4] [µM] | off-target effects on host proteins [5] | reduction of SARS-CoV viral load [6] [log 10] | viral RNA reduction in supernatant [7] | IC50 [8] [nM] | reduction in normalized expression of N gene in cell lysate [9] [log10] | cell viability in MTT assay [10] | CC50 at 72 h [11] [nM] | protection (viral yield reduction) in animal lungs ([3]; Nirmatrelvir 200 mg/kg IP, Pelitinib oral 10 mg/kg, 12-hour intervals) [log 10] | protection (viral yield reduction) in animal lungs ([3]; in vivo) | inhibition of virus replication ([8]; WT virus) |
| --- | --- | --- | --- | --- | --- | --- | --- | --- | --- | --- | --- | --- | --- | --- |
| Cc1ccc(C2C3=C(CC(c4ccccc4)CC3=O)NC3=C2C(=O)c2ccccc23)cc1 (stereo not shown) [Compound 172, 10-(4-methylphenyl)-7-phenyl-6,7,8,10-tetrahydro-5H-indeno[1,2-b]quinoline-9,11-dione] | moderate | moderate | 1 | 6.89 | no significant off-target effects | 1 | more than 3 log 10 | 3880 | > 5 | over 90% | > 100000 | – | – | – |
| CC(C)(C)[C@H](NC(=O)C(F)(F)F)C(=O)N1C[C@H]2[C@@H]([C@H]1C(=O)N[C@H](C#N)C[C@@H]1CCNC1=O)C2(C)C [Nirmatrelvir] | – | – | – | – | – | – | – | 18.4 | – | – | – | > 4 | – | – |
| CCOc1cc2ncc(C#N)c(Nc3ccc(F)c(Cl)c3)c2cc1NC(=O)/C=C/CN(C)C [Pelitinib] | – | – | – | – | – | – | – | 1620 | – | – | – | – | marginal | dose-dependent inhibition of WT virus replication |
